{"source": "patent EP4039094A1", "about": "“NOVEL ANTIFUNGAL COMPOUNDS” (Max-Planck-Gesellschaft zur Förderung der Wissenschaften …, priority 2021, dated 2022)", "target": "T1, Stp1/Stp4/Stp3 subcomplex (Mycosarcoma maydis, UniProt A0A0D1C5E3+A0A0D1CU07+A0A0D1EAN2)", "T1 sequence (A0A0D1CU07 29-515)": "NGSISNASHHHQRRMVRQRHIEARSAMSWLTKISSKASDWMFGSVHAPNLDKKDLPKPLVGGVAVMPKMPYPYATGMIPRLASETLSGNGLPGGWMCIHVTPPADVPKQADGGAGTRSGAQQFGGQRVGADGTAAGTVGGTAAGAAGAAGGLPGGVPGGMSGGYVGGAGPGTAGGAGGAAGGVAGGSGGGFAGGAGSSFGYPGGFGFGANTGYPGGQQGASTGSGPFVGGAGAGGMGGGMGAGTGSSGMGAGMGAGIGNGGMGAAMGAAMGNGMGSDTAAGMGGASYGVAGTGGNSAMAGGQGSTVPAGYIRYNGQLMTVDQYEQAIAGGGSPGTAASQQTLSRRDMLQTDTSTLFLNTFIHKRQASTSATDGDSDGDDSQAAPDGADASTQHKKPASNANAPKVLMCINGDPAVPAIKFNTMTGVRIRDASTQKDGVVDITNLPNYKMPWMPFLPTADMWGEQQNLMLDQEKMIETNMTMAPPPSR", "T1 sequence (A0A0D1C5E3 24-129)": "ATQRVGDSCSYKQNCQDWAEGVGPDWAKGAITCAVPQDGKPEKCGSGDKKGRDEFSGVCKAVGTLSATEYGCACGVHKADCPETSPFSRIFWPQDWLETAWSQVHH", "T1 sequence (A0A0D1EAN2 25-327)": "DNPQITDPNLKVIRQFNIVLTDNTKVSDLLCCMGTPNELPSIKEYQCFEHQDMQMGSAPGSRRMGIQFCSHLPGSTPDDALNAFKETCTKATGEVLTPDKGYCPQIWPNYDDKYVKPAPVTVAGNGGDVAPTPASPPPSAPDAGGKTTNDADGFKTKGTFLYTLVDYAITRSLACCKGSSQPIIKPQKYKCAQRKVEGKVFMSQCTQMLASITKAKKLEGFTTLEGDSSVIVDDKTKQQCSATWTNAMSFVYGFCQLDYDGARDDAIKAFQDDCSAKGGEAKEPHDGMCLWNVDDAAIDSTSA", "assay": "Alamar Blue viability assay in S. cerevisiae 2-hybrid strain NL73 (viability depends on Stp complex formation)", "type": "cell-based, U. maydis", "settings": "for pIC50: read-out: IC50", "from_the_text": "To develop a screening platform based on Stp complex formation, a Saccharomyces cerevisiae 2-hybrid system was used. […] After co-transformation, reporter gene transcription is activated only if the two fusion proteins interact in the yeast nucleus. Moreover, the S. cerevisiae strain AH109 harbours the reporter genes ADE2 and HIS3, which encode for two enzymes that are crucial for adenine (Ade) and histidine (His) biosynthesis and thereby enable nutritional selection as a read-out for the interaction between proteins. In the following experiments, growth on high-stringency synthetic defined (SD) medium (SD -Leu -Trp -Ade -His) was used to identify if the complex members interact between them causing expression of ADE2 and HIS3. Additionally, strains were also grown on low-stringency medium (SD -Leu -Trp) to confirm their viability. […] All experiments were done with three independent transformants to exclude false positives due to spontaneous mutations.\nThe S. cerevisiae strain AH109 from Clontech (Saint-Germain-en-Laye, France) is auxotrophic for tryptophan, leucine, adenine and histidine. In addition, lacz is under control of the MEL1 UAS to be used as readout for quantitative β-galactosidase assays.\nThe resulting test strain NL73 (AD-Stp4/BD-Stp1/myc-Stp3) expresses the Stp1/Stp4/Stp3 subcomplex. NL73 carries the following three plasmids: pGBKT7-stp1: pGBKT7 vector expressing proteins fused to the GAL4 DNA binding domain (DNA-BD). pGBKT7 also contains the T7 promoter, a c-Myc epitope tag, and a MCS. The vector carries a Kanamycin resistance gene (Kanr) for selection in E. coli and the TRP1 nutritional marker for selection in yeast. pGAD-stp4: pGADT7 vector expressing proteins fused to a GAL4 activation domain (AD). The GAL4 AD fusion contains an N-terminal nuclear localization signal that targets the protein to the yeast nucleus, and a HA Tag, located between the GAL4 AD and the protein of interest. The vector carries an ampicillin resistance gene (Ampr) for selection in E. coli and a LEU2 nutritional marker for selection in yeast. pYEA-stp3-myc: pYEA vector expressing proteins under the control of the phosphoglycerate kinase promoter. The vector carries an ampicillin resistance gene (Ampr) for selection in E. coli and an ADE2 nutritional marker for selection in yeast. As control strain, NL70 containing empty vectors was generated (AH109Δabc9 pGAD::LEU2 pGBK::TRP1 pYEA::ADE2).\nAfter that, 25 µl of NL73 cell suspension were dispensed into the assay plates using Multidrop Combi (Thermofisher Scientific) giving a final screening concentration of 10 µM. One column of the assay plate was filled with 25 µl of NL70 control strain cell suspension as negative control. Plates were sealed with Breathe-Easy sealing membrane (Sigma, Z380059), lidded and incubated in a humid chamber over night at 30°C and 140 rpm in an HT Multitron Pro (Infors). […] For the viability assay, the alamar Blue HS Cell Viability reagent (Invitrogen, #A50101) was pre-diluted using an equal amount of dVE-H2O and 5 µl of diluted Alamar Blue were added to the screening plates using Multidrop Combi. The plates were sealed again and incubated for 4 h at room temperature, unlidded. […] Screening data was normalized to DMSO-treated NL73 cells (that received DMSO in the same concentration as in samples where compounds dissolved in DMSO were added) being 100% and DMSO-treated NL70 cells representing 0% viability and analyzed with Quattro Software Suite (Quattro Research GmbH).", "key": {"[1]": {"settings": "inhibitory activity on NL73 viability, Table 6"}}, "note": "pIC50: −log10 of the molar value. Read-outs that look alike come from different tables or passages of the source."}
{"smiles": "CCn1c2c(c(SCc3cccc(C)c3)nc1=O)CCC2", "note": "[Compound 2-C]", "values": [{"measurement": "pIC50", "setting": "[1]", "result": 5.21}]}
{"smiles": "O=S(=O)(Nc1cnc2c(cnn2C2CCCCC2)c1)c1cc(F)ccc1F", "note": "[Compound 3-B]", "values": [{"measurement": "pIC50", "setting": "Alamar Blue assay, Table 8", "result": 5.66}]}
{"smiles": "CCCn1c2c(c(SCc3ccccc3F)nc1=O)CCC2", "note": "[Compound 3-C]", "values": [{"measurement": "pIC50", "setting": "[1]", "result": 5.19}]}
{"smiles": "Cn1ncc2cc(NS(=O)(=O)c3cc(F)ccc3F)cnc21", "note": "[Compound 4-B]", "values": [{"measurement": "pIC50", "setting": "Alamar Blue assay, Table 8", "result": 4.99}]}
{"smiles": "CC(C)n1ncc2cc(NS(C)(=O)=O)cnc21", "note": "[Ref1-B, reference compound]", "values": [{"measurement": "IC50", "setting": "Alamar Blue assay, Table 8", "result": "inactive"}]}
{"smiles": "O=S(=O)(Nc1cnc2[nH]ncc2c1)c1cc(F)ccc1F", "note": "[Ref2-B, reference compound]", "values": [{"measurement": "IC50", "setting": "Alamar Blue assay, Table 8", "result": "inactive"}]}
